Data on 9 compounds can be found in ChEMBL document CHEMBL2346626, “PF-04859989 as a template for structure-based drug design: identification of new pyrazole series of irreversible KAT II inhibitors with improved lipophilic efficiency” (Bioorg Med Chem Lett, 2013).

Molecules are shown by their SMILES.

In data set [1] the target is T1, Kynurenine/alpha-aminoadipate aminotransferase, mitochondrial (Homo sapiens, UniProt Q8N5Z0). The experiment in a line: Inhibition of human KAT2 using L-kynurenine as substrate after 15 to 20 hrs by UV-visible spectra analysis.
Target sequence in this assay (Q8N5Z0 whole entry): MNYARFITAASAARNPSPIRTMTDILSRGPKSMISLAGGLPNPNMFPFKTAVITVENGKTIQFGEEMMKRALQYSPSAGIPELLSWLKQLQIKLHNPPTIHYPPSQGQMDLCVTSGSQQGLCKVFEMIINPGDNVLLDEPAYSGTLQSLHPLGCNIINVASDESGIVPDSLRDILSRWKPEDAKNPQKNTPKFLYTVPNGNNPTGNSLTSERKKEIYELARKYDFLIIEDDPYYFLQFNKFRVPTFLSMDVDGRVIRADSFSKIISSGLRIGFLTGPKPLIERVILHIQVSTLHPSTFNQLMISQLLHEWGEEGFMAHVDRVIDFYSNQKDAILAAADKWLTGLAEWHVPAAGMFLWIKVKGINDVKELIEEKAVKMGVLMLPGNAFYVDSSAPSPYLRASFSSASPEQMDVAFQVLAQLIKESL
Data set [2] deals with T1, Kynurenine/alpha-aminoadipate aminotransferase, mitochondrial. The experiment in a line: Inhibition of human KAT2 using L-kynurenine as substrate measured every 5 mins for 16 hours by UV-visible spectra analysis.
Target sequence in this assay (Q8N5Z0 30-425 limits assumed): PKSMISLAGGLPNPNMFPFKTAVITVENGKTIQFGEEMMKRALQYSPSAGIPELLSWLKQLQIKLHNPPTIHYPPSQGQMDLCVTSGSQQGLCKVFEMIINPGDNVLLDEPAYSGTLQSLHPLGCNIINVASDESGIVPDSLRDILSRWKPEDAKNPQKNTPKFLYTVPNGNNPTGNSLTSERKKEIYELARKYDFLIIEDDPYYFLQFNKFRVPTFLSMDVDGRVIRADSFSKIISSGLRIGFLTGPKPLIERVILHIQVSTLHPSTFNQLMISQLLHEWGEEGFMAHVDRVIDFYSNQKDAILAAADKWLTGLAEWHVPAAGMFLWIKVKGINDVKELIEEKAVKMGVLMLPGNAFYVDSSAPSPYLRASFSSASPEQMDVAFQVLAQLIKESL
For data set [3] the target is unchanged. The experiment in a line: Ratio of Kinact to Ki for inhibition of human KAT2.
Target sequence in this assay (Q8N5Z0 30-425 limits assumed): as above
The nature of data set [4]: Intrinsic apparent clearance in human liver microsomes. The data set is classed as ADME, Microsome. To be noted: read-out: CLH(app). (Microsomes from liver hold many membrane-bound enzymes, among them those of drug oxidation.)

Usually IC50 stands for the midpoint of a concentration-inhibition curve. The low end stands for higher potency, the high end for lower potency. A word on the Ki: it is the equilibrium dissociation constant of an inhibitor or competing ligand from its target. The low end stands for a stronger hold on the target, the high end for a looser hold on the target. Consider `N[C@H]1Cc2c(c(C(F)(F)F)nn2Cc2ccccc2)N(O)C1=O`, for which, in data set [1], the midpoint of inhibition, the IC50, lay at 74 nM and affinity was put at a Ki of 48 nM. This compound also registered a Kinact in data set [2] of 0.0227 min⁻¹. In data set [3], the Ratio is 7920 M⁻¹ s⁻¹.

Regarding `N[C@H]1Cc2nn(-c3ccccc3)cc2N(O)C1=O`, in data set [1], half-maximal inhibition (IC50) required 85 nM and the affinity, expressed as Ki, was 41 nM. This compound came in with a Kinact in data set [2] of 0.0144 min⁻¹. In data set [3], the Ratio turned out to be 8580 M⁻¹ s⁻¹.

In turn, `Cn1nc(Cc2ccccc2)c2c1N(O)C(=O)[C@@H](N)C2` returned an inhibition constant Ki in data set [1] of 32 nM. The Kinact in data set [2] was found to be 0.0349 min⁻¹. Besides, the Ratio in data set [3] amounted to 16000 M⁻¹ s⁻¹.

Turning to `COc1cc2c(cc1Cc1ccccc1)C[C@H](N)C(=O)N2O`, the microsomal CLint in data set [4] is 26 µL/min/mg. In data set [1], half-maximal inhibition (IC50) required 37 nM and the Ki came out at 1.6 nM. This compound gave a Kinact in data set [2] of 0.0146 min⁻¹. In data set [3], the Ratio amounted to 129000 M⁻¹ s⁻¹.

Consider `COc1cccc(Cc2nn(C)c3c2C[C@H](N)C(=O)N3O)c1`, for which the Ki in data set [1] was 22 nM. For the same compound, in data set [2], the Kinact came out at 0.0116 min⁻¹. Besides, the Ratio in data set [3] was found to be 8710 M⁻¹ s⁻¹.

On to `N[C@H]1Cc2c(cnn2Cc2ccccc2)N(O)C1=O`, for which the inhibition constant Ki in data set [1] is 12 nM. In data set [2], this compound registered a Kinact of 0.0116 min⁻¹. Further, in data set [3], the Ratio is 16200 M⁻¹ s⁻¹.

For the compound `N[C@H]1Cc2cn(Cc3ccccc3)nc2N(O)C1=O`, in data set [1], the IC50 was 47 nM and affinity was put at a Ki of 23 nM. Also, in data set [2], the Kinact amounted to 0.0147 min⁻¹. Besides, the Ratio in data set [3] worked out at 10500 M⁻¹ s⁻¹.

With `N[C@H]1Cc2cn(-c3ccccc3)nc2N(O)C1=O`, the microsomal CLint in data set [4] is under 8 µL/min/mg. In data set [1], the IC50 was determined as 25 nM and the affinity, expressed as Ki, was 1.9 nM. In addition, the Kinact in data set [2] amounted to 0.0125 min⁻¹. For the same compound, in data set [3], the Ratio came to 112000 M⁻¹ s⁻¹.

Compound `N[C@H]1Cc2ccccc2N(O)C1=O` displayed a Ki in data set [1] of 14 nM.
